From patent publication US9133131B2 (Purdue Pharma L.P., priority 2011, dated 2015) come the findings set out here.

hNav1.7, sequence (Q15858 other isoform, or with tags, fused parts or gaps): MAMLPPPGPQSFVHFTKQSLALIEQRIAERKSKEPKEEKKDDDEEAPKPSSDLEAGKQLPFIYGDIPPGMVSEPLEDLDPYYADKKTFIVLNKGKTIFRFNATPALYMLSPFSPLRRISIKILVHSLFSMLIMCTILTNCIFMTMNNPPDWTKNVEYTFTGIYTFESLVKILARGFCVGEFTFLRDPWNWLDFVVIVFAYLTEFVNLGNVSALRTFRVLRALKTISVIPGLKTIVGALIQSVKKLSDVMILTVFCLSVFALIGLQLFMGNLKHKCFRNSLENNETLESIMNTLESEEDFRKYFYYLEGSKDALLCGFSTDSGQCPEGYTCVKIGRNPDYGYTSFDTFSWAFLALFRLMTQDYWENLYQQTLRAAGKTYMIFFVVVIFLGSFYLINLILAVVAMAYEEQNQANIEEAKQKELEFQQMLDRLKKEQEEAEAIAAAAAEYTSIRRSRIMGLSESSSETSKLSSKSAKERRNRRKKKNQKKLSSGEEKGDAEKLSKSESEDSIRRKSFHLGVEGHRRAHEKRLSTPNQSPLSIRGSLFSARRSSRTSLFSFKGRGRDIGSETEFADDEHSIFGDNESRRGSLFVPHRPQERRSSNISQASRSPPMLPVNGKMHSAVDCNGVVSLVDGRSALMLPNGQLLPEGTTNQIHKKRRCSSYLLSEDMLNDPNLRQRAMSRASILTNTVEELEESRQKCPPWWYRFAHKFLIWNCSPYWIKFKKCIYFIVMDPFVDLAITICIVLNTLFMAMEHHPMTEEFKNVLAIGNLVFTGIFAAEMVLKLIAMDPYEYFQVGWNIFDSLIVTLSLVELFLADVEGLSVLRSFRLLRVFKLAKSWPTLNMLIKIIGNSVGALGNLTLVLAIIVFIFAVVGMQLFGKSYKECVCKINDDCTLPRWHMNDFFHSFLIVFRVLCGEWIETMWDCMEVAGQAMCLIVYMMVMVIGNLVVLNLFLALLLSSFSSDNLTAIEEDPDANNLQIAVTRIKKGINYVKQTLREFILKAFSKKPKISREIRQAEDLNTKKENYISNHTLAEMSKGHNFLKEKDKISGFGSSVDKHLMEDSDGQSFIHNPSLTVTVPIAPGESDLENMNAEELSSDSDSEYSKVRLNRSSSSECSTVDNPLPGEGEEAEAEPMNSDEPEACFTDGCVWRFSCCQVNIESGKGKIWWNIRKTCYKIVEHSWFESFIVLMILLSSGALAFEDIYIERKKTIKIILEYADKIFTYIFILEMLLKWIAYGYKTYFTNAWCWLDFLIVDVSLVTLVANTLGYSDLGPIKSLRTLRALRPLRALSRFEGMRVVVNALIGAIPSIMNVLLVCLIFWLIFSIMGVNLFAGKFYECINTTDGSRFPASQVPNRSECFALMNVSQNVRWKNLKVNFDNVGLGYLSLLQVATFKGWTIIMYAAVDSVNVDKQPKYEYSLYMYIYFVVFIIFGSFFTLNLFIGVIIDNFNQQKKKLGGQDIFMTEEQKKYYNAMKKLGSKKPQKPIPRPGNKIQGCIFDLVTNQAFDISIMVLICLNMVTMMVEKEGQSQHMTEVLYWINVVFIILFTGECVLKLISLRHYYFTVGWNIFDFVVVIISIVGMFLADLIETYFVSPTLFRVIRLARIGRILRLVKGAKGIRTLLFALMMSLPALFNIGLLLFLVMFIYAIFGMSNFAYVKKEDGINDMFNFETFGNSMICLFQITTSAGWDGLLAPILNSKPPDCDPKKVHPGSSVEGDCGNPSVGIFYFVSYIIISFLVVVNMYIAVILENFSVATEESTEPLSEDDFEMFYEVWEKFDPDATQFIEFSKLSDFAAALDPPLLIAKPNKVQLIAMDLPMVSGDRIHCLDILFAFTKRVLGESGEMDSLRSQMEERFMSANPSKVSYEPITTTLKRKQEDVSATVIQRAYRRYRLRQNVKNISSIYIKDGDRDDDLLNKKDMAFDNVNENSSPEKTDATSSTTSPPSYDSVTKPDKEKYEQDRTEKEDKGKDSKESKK
human Nav1.7, sequence (Q15858 other isoform, or with tags, fused parts or gaps): as above

One test deals with human Nav1.7 (Homo sapiens (Human), UniProt Q15858). Briefly: FLIPR sodium dye assay for sodium channel blocking activity. It counts as cell-based. To be noted: recombinant human Nav1.7 in HEK293 cells. From the text:
For dominant selection of the Nav1.7-expressing clones, the expression plasmid co-expressed the neomycin resistance gene. […] Recombinant beta and gamma subunits were not introduced into this cell line. Additional cell lines expressing recombinant Nav1.7 cloned from other species can also be used, alone or in combination with various beta subunits, gamma subunits or chaperones.
Cell maintenance: Unless otherwise noted, cell culture reagents were purchased from Mediatech of Herndon, Va. The recombinant Nav1.7/HEK293 cells were routinely cultured in growth medium consisting of Dulbecco's […] essential medium containing 10% fetal bovine serum (FBS, Hyclone, Thermo Fisher Scientific, Logan, Utah), 100 U/mL penicillin, 100 μg/mL streptomycin, 2-4 mM L-glutamine, and […] G418. For natural, non-recombinant cell lines, the selective antibiotic was omitted, and additional media formulations can be applied as needed.
The intensity of this emission, but not the wavelength range, is increased when the dye is exposed to Na^+ ions, which it can bind with partial selectivity. Cells expressing Nav1.7 or other sodium channels were loaded with the CoroNa™ Green dye immediately in advance of the fluorescence assay, and then, after agonist stimulation, the mobilization of Na^+ ions was detected as the Na^+ ions flowed from the extracellular fluid into the cytoplasm through the activated sodium channel pores. The dye was stored in the dark as a lyophilized powder, and then an aliquot was dissolved immediately before the cell loading procedure, according to the instructions of the manufacturer to a stock concentration of 10 mM in DMSO. It was then diluted in the assay buffer to a 4× concentrated working solution, so that the final concentration of dye in the cell loading buffer was 5 μM.
These scorpion toxins inhibit the fast inactivation of their cognate target channels. Stock solutions of the agonists were prepared to 40 mM in DMSO (veratridine) and 1 mg/mL in dH2O (scorpion venom), and then diluted to make a 4× or 2× stock (depending on the particular assay) in assay buffer, the final concentration being 100 μM (veratridine) and 10 μg/mL (scorpion venom). Both of the agonists were purchased from Sigma Aldrich, St. Louis, Mo.
Test Compounds: Test compounds were dissolved in DMSO to yield 10 mM stock solutions. […] If a particular test article appeared to be especially potent, then the concentration curve was adjusted, e.g., to 10-fold lower concentrations, in order to perform the dose-response in a more relevant concentration range. Compound dilutions were added during the dye-loading and pre-stimulation step, and then again during the fluorescence assay, early in the kinetic read.
Data Analysis: The data were analyzed according to methods known to those skilled in the art or using the GraphPad® Prism version 4.0 or higher, Program (available from GraphPad Software, San Diego, Calif.) to determine the IC50 value for the test article. At least one standard reference compound was evaluated during each experiment.
FLIPR® or FLIPR^TETRA® sodium dye assay with KCl and test article pre-incubation: Cells were prepared by plating the recombinant HEK293 cells or other host cells expressing either recombinant or non-recombinant, native, Nav1.7 alpha subunit, alone or in combination with various beta and gamma subunits at a density of ˜40,000 cells/well into a 96-well black, clear-bottom, PDL-coated plate. The assay can be adapted to 384-well or 1,536-well format, if desired, using proportionately less cells and media. The plate was then incubated in growth media, with or without selective antibiotic, overnight at 37° C. at 5% CO2, 95% humidity, in preparation for the assay. For counter-screens of other voltage-gated sodium channels, the procedure was very similar, though optimal densities of cells, media and subsequent assay components can be fine-tuned for the particular cell line or isoform.
With `N#Cc1ccc(Oc2ccc(-c3nc(C(N)=O)cc([C@H](O)CO)n3)cc2)c(C(F)(F)F)c1` [compound 5], the 50% inhibitory concentration (IC50) (as a rule, the midpoint of a concentration-inhibition curve) is 526 ± 129 nM. `NC(=O)c1cc([C@@H](O)CO)nc(-c2ccc(Oc3ccc(Cl)cc3F)cc2)n1` [compound 9]: the IC50 was found to be 67 ± 5 nM. For `NC(=O)c1cc([C@H](O)CO)nc(-c2ccc(Oc3ccc(Cl)cc3F)cc2)n1` [compound 10], the IC50 was 84 ± 29 nM. With `N#Cc1cc(Oc2ccc(-c3nc(C(N)=O)cc([C@H](O)CO)n3)cc2)ccc1C(F)(F)F` [compound 11], the IC50 is 279 ± 112 nM. `N#Cc1ccc(Oc2ccc(-c3nc(C(N)=O)cc([C@@H](O)CO)n3)cc2)cc1C(F)(F)F` [compound 12]: the half-inhibitory concentration (IC50) is 384 ± 29 nM.

With `N#Cc1ccc(Oc2ccc(-c3nc(C(N)=O)cc([C@H](O)CO)n3)cc2)cc1C(F)(F)F` [compound 13], the IC50 came to 394 ± 19 nM. As for `COC(=O)[C@H](C)NC(=O)c1cc([C@H](O)CO)nc(-c2ccc(Oc3ccc(F)cc3)cc2)n1` [compound 14], the 50% inhibitory concentration (IC50) turned out to be 1920 ± 401 nM. Consider `C[C@H](NC(=O)c1cc([C@H](O)CO)nc(-c2ccc(Oc3ccc(F)cc3)cc2)n1)C(=O)O` [compound 15], for which the concentration for half-maximal inhibition (IC50) is more than 20000 nM. Take `C[C@H](NC(=O)c1cc([C@H](O)CO)nc(-c2ccc(Oc3ccc(F)cc3)cc2)n1)C(N)=O` [compound 16]: the IC50 was 593 ± 4 nM. Turning to `NC(=O)c1cc([C@H](O)CO)nc(-c2ccc(Oc3ccc(C(F)(F)F)cc3)cc2)n1` [compound 17], the IC50 amounted to 133 ± 26 nM. As for `NC(=O)c1cc([C@@H](O)CO)nc(-c2ccc(Oc3ccc(C(F)(F)F)cc3)cc2)n1` [compound 18], the IC50 was 135 ± 28 nM. As for `NC(=O)c1cc([C@H](O)CO)nc(-c2ccc(Oc3ccc(C(F)(F)F)cn3)cc2)n1` [compound 19], the concentration for half-maximal inhibition (IC50) was 325 nM.

For another test, the target named is hNav1.7 (Homo sapiens (Human), UniProt Q15858). The test is described as follows: Electrophysiology (EP) whole-cell patch clamp assay. Format: cell-based. To be noted: affinity for the inactivated state of the channel; hNav1.7 HEK-293 cells; read-out: Nav1.7 Activity EP assay Ki. As to the method:
Cells: The hNav1.7 expressing HEK-293 cells were plated on 35 mm culture dishes pre-coated with poly-D-lysine in standard DMEM culture media (Mediatech, Inc., Herndon, Va.) and incubated in a 5% CO2 incubator at 37° C. Cultured cells were used approximately 12-48 hours after plating.
Electrophysiology: On the day of experimentation, the 35 mm dish was placed on the stage of an inverted microscope equipped with a perfusion system that continuously perfuses the culture dish with fresh recording media. A gravity driven superfusion system was used to apply test solutions directly to the cell under evaluation. This system consists of an array of glass pipette glass connected to a motorized horizontal translator. The outlet of the shooter was positioned approximately 100 μm from the cell of interest.
Whole cell currents were recorded using the whole-cell patch clamp configuration using an Axopatch 200B amplifier (Axon Instruments, Foster City Calif.), 1322A A/D converter (Axon Instruments) and pClamp software (v. 8; Axon Instruments) and stored on a personal computer. Gigaseals were formed and the whole-cell configuration was established in voltage clamp mode, and membrane currents generated by hNav1.7 were recorded in gap-free mode. Borosilicate glass pipettes have resistance values between 1.5 and 2.0 MΩ when filled with pipette solution and series resistance (<5 MΩ) was compensated 75-80%. Signals were sampled at 50 kHz and low pass filtered at 3 kHz.
Voltage protocols: After establishing the whole-cell configuration in voltage clamp mode, voltage protocols were run to establish the 1) test potential, 2) holding potential, and 3) the conditioning potential for each cell.
After establishing the whole-cell configuration in voltage clamp mode, a standard I-V protocol was run to determine the potential at which the maximal current (Imax) is elicited. This potential was the test potential (Vt). To determine a conditioning potential at which 100% of channels were in the inactivated state, a standard steady-state inactivation (SSIN) protocol was run using a series of fifteen 100 ms-long depolarizing prepulses, incrementing in 10 mV steps, immediately followed by a 5 ms testing pulse, Vt, to Vmax. This protocol also permitted determination of the holding potential at which all channels are in the resting state.
For compounds causing significant retardation of recovery from inactivation, an estimate of the affinity for the inactivated state of the channel (Ki) was generated using the following protocol. From the negative, no residual inactivation, holding potential, the cell was depolarized to the conditioning voltage for 2-5 seconds, returned to the negative holding potential for 10-20 ms to relieve fast inactivation and then depolarized to the test potential for ˜15 ms. This voltage protocol was repeated every 10-15 seconds, first to establish a baseline in the absence of the test compound, then in the presence of the test compound.
After a stable baseline was established, the test compound was applied and block of the current elicited by the test pulse assessed. In some cases, multiple cumulative concentrations were applied to identify a concentration that blocked between 40-60% of this current. Washout of the compound was attempted by superfusing with control solution once steady-state block was observed. An estimate of the Ki was calculated as follows: Ki=[drug]*{FR/(1−FR)}, Eq. 1
where [drug] is the concentration of a drug, and FR=I(after drug)/I(control), Eq. 2 where I is the peak current amplitude. If multiple concentrations were used, Ki was determined from the fit of a logistic equation to FRs plotted against corresponding drug concentrations.
In the alternative, the voltage clamp protocol to examine hNav1.7 currents was as follows. […]
For orientation: The patch-clamp technique gives a direct electrical read-out from membranes.
On to `NC(=O)c1cc([C@@H](O)CO)nc(-c2ccc(Oc3ccc(Cl)cc3F)cc2)n1` [compound 9], for which the Ki came out at 27 ± 0.3 nM. Regarding `N#Cc1cc(Oc2ccc(-c3nc(C(N)=O)cc([C@H](O)CO)n3)cc2)ccc1C(F)(F)F` [compound 11], the Ki amounted to 147 ± 30 nM. For the compound `N#Cc1ccc(Oc2ccc(-c3nc(C(N)=O)cc([C@@H](O)CO)n3)cc2)cc1C(F)(F)F` [compound 12], the Ki is 400 ± 90 nM. Regarding `N#Cc1ccc(Oc2ccc(-c3nc(C(N)=O)cc([C@H](O)CO)n3)cc2)cc1C(F)(F)F` [compound 13], the Ki turned out to be 195 ± 30 nM. Regarding `C[C@H](NC(=O)c1cc([C@H](O)CO)nc(-c2ccc(Oc3ccc(F)cc3)cc2)n1)C(N)=O` [compound 16], the Ki worked out at 643 ± 190 nM.

The same test, now with this note: resting block dissociation constant; hNav1.7 HEK-293 cells; read-out: Nav1.7 Activity EP assay Kr.
For `NC(=O)c1cc([C@@H](O)CO)nc(-c2ccc(Oc3ccc(Cl)cc3F)cc2)n1` [compound 9], the Kd turned out to be 1040 ± 230 nM.

Regarding `N#Cc1cc(Oc2ccc(-c3nc(C(N)=O)cc([C@H](O)CO)n3)cc2)ccc1C(F)(F)F` [compound 11], the Kd was 2010 ± 310 nM. Consider `N#Cc1ccc(Oc2ccc(-c3nc(C(N)=O)cc([C@@H](O)CO)n3)cc2)cc1C(F)(F)F` [compound 12], for which the Kd stood at 8670 ± 990 nM. On the same count and under the same terms, the same measure for `N#Cc1ccc(Oc2ccc(-c3nc(C(N)=O)cc([C@H](O)CO)n3)cc2)cc1C(F)(F)F` [compound 13]: 5150 ± 360 nM; for `C[C@H](NC(=O)c1cc([C@H](O)CO)nc(-c2ccc(Oc3ccc(F)cc3)cc2)n1)C(N)=O` [compound 16]: 154000 ± 54400 nM.
